{"source": "patent US20220152117A1", "about": "“METHODS OF PROMOTING CELLULAR MATURATION WITH AMPK ACTIVATORS” (UNIVERSITY OF WASHINGTON, priority 2019, published 2022)", "type_in_all_cases": "cell-based, human", "key": {"[1]": {"test_system": "hPSC-CMs", "assay": "Western blotting with phospho-specific antibodies (pACC, pAMPK, pAkt, pERK, p-p38-MAPK)", "description": "Total protein was acquired from control cardiomyocytes or cardiomyocytes after two weeks of AICAR treatment and subjected to SDS-PAGE. The lanes were loaded with equal amount of protein and were checked by Ponceau S staining. After blocking with 5% milk, the membranes were incubated with anti-pACC ([…]) rabbit polyclonal antibody (Cell Signaling Technology), anti-pAMPK, anti-pAkt, anti-pERK, anti-p38-MAPK, or anti-GAPDH mouse monoclonal antibody (Abcam) overnight while shaking at 4° C. After incubation with anti-rabbit (for pACC) and anti-mouse (for GAPDH, pAMPK, pAkt, pERK, and p-p38-MAPK) horseradish peroxidase-coupled secondary antibody (Santa Cruz Biotechnology®), bands were visualized with SuperSignal West Femto Trial KitTM (Thermo Scientific®). The immunoblots band densities were analyzed in Image J."}, "[2]": {"test_system": "hPSC-CMs", "assay": "Quantitative RT-PCR gene expression in cardiomyocytes", "description": "Total RNA was isolated using the Qiagen RNeasy Kit™, and mRNA was reverse transcribed using the Superscript™ III first strand cDNA synthesis kit (Invitrogen®). All primers were purchased from Real Time Primers, and qRT-PCR was performed using SYBR™ green chemistry and an ABI 7900HT instrument or TAQMAN™ with BIORad CXF384™. Samples were normalized using hypoxanthine-guanine phosphoribosylthransferase (HPRT) as a housekeeping gene. The sequences of the primers are listed below in Table 1. The primers used for titin isoforms were adapted from^29. All Q-RT-PCR assays were performed in triplicate on control and experimental groups and firstly normalized to hHPRT level and then normalized against control cardiomyocytes. N=4-5 independent experiments."}, "[3]": {"test_system": "neurons derived from an FAD patient cell line harboring a duplication of the APP gene", "assay": "Secreted amyloid beta peptides in neuronal culture media by ELISA", "settings": "three-week neuronal differentiation, at each week", "description": "Undifferentiated human IMR90-induced pluripotent stem cells, originally derived from lung fibroblasts^22 (James A. Thomson, University of Wisconsin-Madison), were expanded using mouse embryonic fibroblast-conditioned medium supplemented with 5 ng/ml basic fibroblast growth factor. Cardiomyocytes were obtained using a previously described protocol^2 that involves the serial application of activin A and bone morphogenetic protein-4 (BMP4) under serum-free, monolayer culture conditions. The cultures were also supplemented with the Wnt agonist CHIR99021 in the early stages of differentiation followed by the Wnt antagonist Xav939. In this study, cardiomyocytes derived from human undifferentiated IMR90-induced stem cells were used, and for brevity, these are referred to human induced pluripotent stem cell-derived cardiomyocytes (hiPSC-CM). After 20 days of in vitro differentiation, the cells were dispersed using 0.05% trypsin-EDTA and re-plated. Cultures were fed every other day thereafter with serum-free RPMI-B27 plus insulin. Only cell preparations containing >80% cardiac troponin T-positive cardiomyocytes (by flow cytometry) were used for the current investigation. […]\nSecreted Amyloid beta (Ab) peptides were measured from the neuronal culture media at one, two and three-week time points after AICAR treatment by ELISA assay (Meso Scale Discovery®)."}, "[4]": {"settings": "AICAR treated vs control hPSC-CMs"}, "[5]": {"settings": "hPSC-CMs, normalized to HPRT then to control cells"}, "[6]": {"settings": "normalized to HPRT then to control cells"}}, "data": [{"smiles": "NC(=O)c1ncn([C@@H]2O[C@H](CO)[C@@H](O)[C@H]2O)c1N", "note": "[AICAR, 5-amino-4-imidazolecarboxamide riboside-1-β-D-ribofuranoside]", "values": [{"measurement": "phopho-p38-MAPK", "setting": "[1]; 1 mM AICAR, time course", "value": "Transient increases"}, {"measurement": "phospho-ERK", "setting": "[1]; 1 mM AICAR, time course", "value": "Transient increases"}, {"measurement": "phospho-Thr172-AMPK phosphorylation", "setting": "[1]; 1 mM AICAR, time course", "value": "rapid robust transient"}, {"measurement": "phosphorylation of Akt at Ser473", "setting": "[1]; 1 mM AICAR, time course", "value": "increased"}, {"measurement": "phosphorylation of Ser79-ACC", "setting": "[1]; 1 mM AICAR, time course", "value": "rapid, time-dependent increase"}, {"measurement": "phospho-ACC (Ser 79) level by immunoblot vs control cells", "setting": "[1]; two weeks of AICAR treatment, same exposure conditions", "value": "more than one thousand-fold increase"}, {"measurement": "cTnI expression levels", "setting": "[2]; [4]", "value": "upregulated"}, {"measurement": "ssTnI to cTnI ratio", "setting": "[2]; [4]", "value": "significantly downregulated"}, {"measurement": "titin N2B expression level", "setting": "[2]; [4]", "value": "significantly upregulated"}, {"measurement": "titin N2BA expression level", "setting": "[2]; [4]", "value": "did not change"}, {"measurement": "titin N2BA to N2B ratio", "setting": "[2]; [4]", "value": "significantly down-regulated"}, {"measurement": "total titin expression level", "setting": "[2]; [4]", "value": "did not change"}, {"measurement": "FABP and PDK4 gene expression levels in cardiomyocytes derived from RUES2 hESCs", "setting": "[2]; RUES2 hESC-derived cardiomyocytes", "value": "same trend of changes"}, {"measurement": "fatty acid binding protein (FABP) expression level", "setting": "[2]; [5]", "value": "significant increase"}, {"measurement": "pyruvate dehydrogenase kinase-4 (PDK4) expression level", "setting": "[2]; [5]", "value": "significant increase"}, {"measurement": "PGC-1α mRNA level", "setting": "[2]; [6]", "value": "2.07±0.31"}, {"measurement": "estrogen-related receptor α (ERR α) mRNA level", "setting": "[2]; [6]", "value": "1.50±0.12"}, {"measurement": "mitochondrial transcription factor A (TFAM) mRNA level", "setting": "[2]; [6]", "value": "2.03±0.11"}, {"measurement": "peroxisome proliferator activated receptor alpha (PPARα) mRNA level", "setting": "[2]; [6]", "value": "1.78±0.22"}, {"measurement": "KCNJ2 expression", "setting": "[2]; vs. control", "value": "1.71±0.17", "unit": "fold"}, {"measurement": "SCN5a expression", "setting": "[2]; vs. control", "value": "1.58±0.2", "unit": "fold"}, {"measurement": "α-myosin heavy chain (α-MHC) expression", "setting": "[2]; vs. control", "value": "2.64±0.51", "unit": "fold"}, {"measurement": "levels of secreted Ab1-40 peptides", "setting": "[3]", "value": "significantly reduced"}, {"measurement": "levels of secreted Ab1-42 peptides", "setting": "[3]", "value": "significantly reduced"}]}]}
